Experimental data from patent publication US10227331B2 (priority 2015, dated 2019).

Legend:
[1] = system: Escherichia coli expressing NDM-1 (CLB30005, CLB30016); format: cell-based; details: NDM-1 (CLB30016), with imipenem 1 μg/ml, 95% inhibition of bacterial growth
In short: (§1)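 Colonies from overnight 35 °C blood-agar cultures were suspended in saline, diluted 1:100 into 1.1× CAMHB and exposed to test compound with or without imipenem at 1 μg/ml. After 22–24 h at 35 °C, absorbance was read to find the concentration restoring imipenem susceptibility.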

[2] = system: Serratia marcescens expressing IMP-1 (CL5741); format: cell-based; details: IMP-1 (CL5741), with imipenem 1 μg/ml, 95% inhibition of bacterial growth
In short: as §1

[3] = system: Klebsiella pneumoniae expressing VIM-1 (IHMA599644); format: cell-based; details: VIM-1 (IHMA599644), with imipenem 1 μg/ml, 95% inhibition of bacterial growth
In short: as §1

[4] = system: P. aeruginosa expressing IMP-1, efflux− (MB9799); assay: Efflux: concentration of MBL inhibitor which restores susceptibility to imipenem; format: cell-based, Pseudomonas aeruginosa; details: imipenem at 2 μg/mL, in the presence of a class A, C, D serine β-lactamase inhibitor closely related to relebactam
Description: (§2) The strain background is Pseudomonas aeruginosa PAO1.

[5] = system: P. aeruginosa expressing IMP-1, efflux+ (MB9798); format: cell-based, Pseudomonas aeruginosa; details: for P. aeruginosa expressing IMP-1, efflux+ (MB9798) MITC95: imipenem at 2 μg/mL, in the presence of a class A, C, D serine β-lactamase inhibitor closely related to relebactam; for Efflux ratio: ratio MITC95 PA_9798/MITC95 PA_9799
Description: as §2

[6] = target: IMP-1 (Serratia marcescens, UniProt P52699); assay: biochemical; format: biochemical; details: CCF2-FA substrate, 2 hours at 25° C; read-out: IMP-1 IC50
In short: (§3)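 Inhibitor was mixed with the metallo-β-lactamase and CCF2-FA. After 2 hours at 25° C, fluorescence of the coumarin–fluorescein cephalosporin substrate was read. IC50 was calculated with a 4-parameter fit.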

[7] = target: NDM-1 (Klebsiella pneumoniae, UniProt C7C422); assay: biochemical; format: biochemical; details: CCF2-FA substrate, 2 hours at 25° C; read-out: NDM-1 IC50
In short: as §3

[8] = target: VIM-1 (Pseudomonas aeruginosa (strain ATCC 15692 / DSM 22644 / CIP 104116 / JCM 14847 / LMG 12228 / 1C / PRS 101 / PAO1), UniProt A0A0F7KYQ8); assay: biochemical; details: CCF2-FA substrate, 2 hours at 25° C
In short: as §3

Chain of NDM-1 (C7C422 whole entry, looked up, species assumed): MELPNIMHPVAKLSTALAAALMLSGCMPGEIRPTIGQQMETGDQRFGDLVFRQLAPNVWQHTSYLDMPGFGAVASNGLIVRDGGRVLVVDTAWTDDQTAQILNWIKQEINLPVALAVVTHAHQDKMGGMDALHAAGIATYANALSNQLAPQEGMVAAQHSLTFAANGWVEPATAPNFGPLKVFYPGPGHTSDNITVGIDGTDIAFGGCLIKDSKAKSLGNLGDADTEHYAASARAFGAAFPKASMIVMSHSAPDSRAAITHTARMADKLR
Chain of IMP-1 (P52699 whole entry, looked up, species assumed): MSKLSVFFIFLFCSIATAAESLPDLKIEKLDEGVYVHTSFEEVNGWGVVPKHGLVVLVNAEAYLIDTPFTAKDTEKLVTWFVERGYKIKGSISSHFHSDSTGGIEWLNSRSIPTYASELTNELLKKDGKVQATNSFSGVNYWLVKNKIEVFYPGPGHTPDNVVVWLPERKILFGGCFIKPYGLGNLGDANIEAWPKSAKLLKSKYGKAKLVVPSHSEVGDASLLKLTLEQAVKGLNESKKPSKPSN

## C[C@H](N)CS(=O)(=O)c1ccc(-c2cccc3c2nc(N)n3C)c(-c2nn[nH]n2)c1S(N)(=O)=O [Example 276, 3-(2-amino-1-methyl-1H-benzo[d]imidazol-4-yl)-6-((S)-2-aminopropylsulfonyl)-2-(2H-tetrazol-5-yl)benzenesulfonamide]
[1]
  Escherichia coli MITC95: 0.7813 µM
[2]
  Serratia marcescens MITC95: 0.7813 µM
[3]
  Klebsiella pneumoniae MITC95: 3.125 µM
[4]
  P. aeruginosa expressing IMP-1, efflux− (MB9799) MITC95: 0.7813 µM
[5]
  P. aeruginosa expressing IMP-1, efflux+ (MB9798) MITC95: 1.563 µM
  Efflux ratio: 2.00
[6]
  IC50: 0.285 nM
[7]
  IC50: 0.24 nM
[8]
  IC50: 0.214 nM

## C[C@H](CN)S(=O)(=O)c1ccc(-c2cccc3nc(N)[nH]c23)c(-c2nn[nH]n2)c1S(N)(=O)=O [Example 277, 3-(2-amino-3H-benzo[d]imidazol-4-yl)-6-((R)-1-aminopropan-2-ylsulfonyl)-2-(2H-tetrazol-5-yl)benzenesulfonamide]
[1]
  Escherichia coli MITC95: 0.3906 µM
[2]
  Serratia marcescens MITC95: 0.7813 µM
[3]
  Klebsiella pneumoniae MITC95: 1.563 µM
[4]
  P. aeruginosa expressing IMP-1, efflux− (MB9799) MITC95: 0.7813 µM
[5]
  P. aeruginosa expressing IMP-1, efflux+ (MB9798) MITC95: 1.563 µM
  Efflux ratio: 2.00
[6]
  IC50: 1.37 nM
[7]
  IC50: 0.527 nM
[8]
  IC50: 0.362 nM

## C[C@H](CN)S(=O)(=O)c1ccc(-c2cccc3c2nc(N)n3C)c(-c2nn[nH]n2)c1S(N)(=O)=O [Example 279, 3-(2-amino-1-methyl-1H-benzo[d]imidazol-4-yl)-6-((R)-1-aminopropan-2-ylsulfonyl)-2-(2H-tetrazol-5-yl)benzenesulfonamide]
[1]
  Escherichia coli MITC95: 0.3906 µM
[2]
  Serratia marcescens MITC95: 1.563 µM
[3]
  Klebsiella pneumoniae MITC95: 1.563 µM
[4]
  P. aeruginosa expressing IMP-1, efflux− (MB9799) MITC95: 0.7813 µM
[5]
  P. aeruginosa expressing IMP-1, efflux+ (MB9798) MITC95: 3.125 µM
  Efflux ratio: 4.00
[6]
  IC50: 0.695 nM
[7]
  IC50: 0.806 nM
[8]
  IC50: 0.47 nM

## C[C@@H](CN)S(=O)(=O)c1ccc(-c2cccc3c2nc(N)n3C)c(-c2nn[nH]n2)c1S(N)(=O)=O [Example 280, 3-(2-amino-1-methyl-1H-benzo[d]imidazol-4-yl)-6-((S)-1-aminopropan-2-ylsulfonyl)-2-(2H-tetrazol-5-yl)benzenesulfonamide]
[1]
  Escherichia coli MITC95: 0.3906 µM
[2]
  Serratia marcescens MITC95: 0.7813 µM
[3]
  Klebsiella pneumoniae MITC95: 1.563 µM
[4]
  P. aeruginosa expressing IMP-1, efflux− (MB9799) MITC95: 0.7813 µM
[5]
  P. aeruginosa expressing IMP-1, efflux+ (MB9798) MITC95: 3.125 µM
  Efflux ratio: 4.00
[6]
  IC50: 0.954 nM
[7]
  IC50: 0.224 nM
[8]
  IC50: 0.445 nM

## NC[C@H](O)CS(=O)(=O)c1ccc(-c2cccc3[nH]c(N)nc23)c(-c2nn[nH]n2)c1S(N)(=O)=O [Example 282, 3-(2-amino-1H-benzo[d]imidazol-4-yl)-6-((S)-3-amino-2-hydroxypropylsulfonyl)-2-(2H-tetrazol-5-yl)benzenesulfonamide]
[1]
  Escherichia coli MITC95: 0.3438 µM
[2]
  Serratia marcescens MITC95: 0.5156 µM
[3]
  Klebsiella pneumoniae MITC95: 0.8359 µM
[4]
  P. aeruginosa expressing IMP-1, efflux− (MB9799) MITC95: 0.418 µM
[5]
  P. aeruginosa expressing IMP-1, efflux+ (MB9798) MITC95: 0.418 µM
  Efflux ratio: 1.00
[6]
  IC50: 0.777 nM
[7]
  IC50: 0.157 nM
[8]
  IC50: 0.28 nM

## CCn1c(N)nc2c(-c3ccc(S(=O)(=O)C4CNC4)c(S(N)(=O)=O)c3-c3nn[nH]n3)cccc21 [Example 283, 3-(2-amino-1-ethyl-1H-benzo[d]imidazol-4-yl)-6-(azetidin-3-ylsulfonyl)-2-(2H-tetrazol-5-yl)benzenesulfonamide]
[1]
  Escherichia coli MITC95: 0.3906 µM
[2]
  Serratia marcescens MITC95: 1.563 µM
[3]
  Klebsiella pneumoniae MITC95: 1.563 µM
[4]
  P. aeruginosa expressing IMP-1, efflux− (MB9799) MITC95: 1.563 µM
[5]
  P. aeruginosa expressing IMP-1, efflux+ (MB9798) MITC95: 6.25 µM
  Efflux ratio: 4.00
[6]
  IC50: 0.496 nM
[7]
  IC50: 0.116 nM
[8]
  IC50: 0.348 nM

## CCn1c(N)nc2c(-c3ccc(S(=O)(=O)CCN)c(S(N)(=O)=O)c3-c3nn[nH]n3)cccc21 [Example 284, 3-(2-amino-1-ethyl-1H-benzo[d]imidazol-4-yl)-6-(2-aminoethylsulfonyl)-2-(2H-tetrazol-5-yl)benzenesulfonamide]
[1]
  Escherichia coli MITC95: 0.3906 µM
[2]
  Serratia marcescens MITC95: 1.563 µM
[3]
  Klebsiella pneumoniae MITC95: 1.563 µM
[4]
  P. aeruginosa expressing IMP-1, efflux− (MB9799) MITC95: 0.7813 µM
[5]
  P. aeruginosa expressing IMP-1, efflux+ (MB9798) MITC95: 3.125 µM
  Efflux ratio: 4.00
[6]
  IC50: 0.327 nM
[7]
  IC50: 0.289 nM
[8]
  IC50: 0.507 nM

## C[C@H](CN)S(=O)(=O)c1ccc(-c2cccc3sc(N)nc23)c(-c2nn[nH]n2)c1S(N)(=O)=O [Example 285, 3-(2-aminobenzo[d]thiazol-4-yl)-6-((R)-1-aminopropan-2-ylsulfonyl)-2-(2H-tetrazol-5-yl)benzenesulfonamide]
[1]
  Escherichia coli MITC95: 3.125 µM
[2]
  Serratia marcescens MITC95: 1.563 µM
[3]
  Klebsiella pneumoniae MITC95: 1.563 µM
[4]
  P. aeruginosa expressing IMP-1, efflux− (MB9799) MITC95: 0.7813 µM
[5]
  P. aeruginosa expressing IMP-1, efflux+ (MB9798) MITC95: 3.125 µM
  Efflux ratio: 4.00
[6]
  IC50: 0.534 nM
[7]
  IC50: 0.37 nM
[8]
  IC50: 0.364 nM

## C[C@@H](CN)S(=O)(=O)c1ccc(-c2cccc3sc(N)nc23)c(-c2nn[nH]n2)c1S(N)(=O)=O [Example 286, 3-(2-aminobenzo[d]thiazol-4-yl)-6-((S)-1-aminopropan-2-ylsulfonyl)-2-(2H-tetrazol-5-yl)benzenesulfonamide]
[1]
  Escherichia coli MITC95: 0.7813 µM
[2]
  Serratia marcescens MITC95: 0.7813 µM
[3]
  Klebsiella pneumoniae MITC95: 1.563 µM
[4]
  P. aeruginosa expressing IMP-1, efflux− (MB9799) MITC95: 0.7813 µM
[5]
  P. aeruginosa expressing IMP-1, efflux+ (MB9798) MITC95: 1.563 µM
  Efflux ratio: 2.00
[6]
  IC50: 0.323 nM
[7]
  IC50: 0.0934 nM
[8]
  IC50: 0.265 nM

## Nc1c(-c2ccc(S(=O)(=O)C3CNC3)c(S(N)(=O)=O)c2-c2nn[nH]n2)cccc1S(N)(=O)=O [Example 287, 2′-amino-4-(azetidin-3-ylsulfonyl)-2-(2H-tetrazol-5-yl)biphenyl-3,3′-disulfonamide]
[1]
  Escherichia coli MITC95: 3.125 µM
[2]
  Serratia marcescens MITC95: 3.125 µM
[3]
  Klebsiella pneumoniae MITC95: 3.125 µM
[4]
  P. aeruginosa expressing IMP-1, efflux− (MB9799) MITC95: 3.125 µM
[5]
  P. aeruginosa expressing IMP-1, efflux+ (MB9798) MITC95: 6.25 µM
  Efflux ratio: 2.00
[6]
  IC50: 2.92 nM
[7]
  IC50: 0.386 nM
[8]
  IC50: 0.607 nM

## NCCNC(=O)c1cccc(-c2ccc(S(=O)(=O)C3CNC3)c(S(N)(=O)=O)c2-c2nn[nH]n2)c1N [Example 288, 2-amino-N-(2-aminoethyl)-4′-(azetidin-3-ylsulfonyl)-5′-sulfamoyl-6′-(2H-tetrazol-5-yl)biphenyl-3-carboxamide]
[1]
  Escherichia coli MITC95: 3.125 µM
[2]
  Serratia marcescens MITC95: 3.125 µM
[3]
  Klebsiella pneumoniae MITC95: 1.563 µM
[4]
  P. aeruginosa expressing IMP-1, efflux− (MB9799) MITC95: 0.7813 µM
[5]
  P. aeruginosa expressing IMP-1, efflux+ (MB9798) MITC95: 3.125 µM
  Efflux ratio: 4.00
[6]
  IC50: 9.83 nM
[7]
  IC50: 1.67 nM
[8]
  IC50: 0.861 nM

## CCCn1c(N)nc2c(-c3ccc(S(=O)(=O)C4CNC4)c(S(N)(=O)=O)c3-c3nn[nH]n3)cccc21 [Example 289, 3-(2-amino-1-propyl-1H-benzo[d]imidazol-4-yl)-6-(azetidin-3-ylsulfonyl)-2-(2H-tetrazol-5-yl)benzenesulfonamide]
[1]
  Escherichia coli MITC95: 0.3906 µM
[2]
  Serratia marcescens MITC95: 1.563 µM
[3]
  Klebsiella pneumoniae MITC95: 3.125 µM
[4]
  P. aeruginosa expressing IMP-1, efflux− (MB9799) MITC95: 1.563 µM
[5]
  P. aeruginosa expressing IMP-1, efflux+ (MB9798) MITC95: 12.5 µM
  Efflux ratio: 8.00
[6]
  IC50: 0.299 nM
[7]
  IC50: 0.12 nM
[8]
  IC50: 0.407 nM

## NS(=O)(=O)c1c(S(=O)(=O)[C@H]2CCNC2)ccc(-c2cccc3nc(C(=O)O)[nH]c23)c1-c1nn[nH]n1 [Example 290, 7-(4-((S)-pyrrolidin-3-ylsulfonyl)-3-sulfamoyl-2-(2H-tetrazol-5-yl)phenyl)-1H-benzo[d]imidazole-2-carboxylic Acid]
[1]
  Escherichia coli MITC95: 3.125 µM
[2]
  Serratia marcescens MITC95: 3.125 µM
[3]
  Klebsiella pneumoniae MITC95: 3.125 µM
[4]
  P. aeruginosa expressing IMP-1, efflux− (MB9799) MITC95: 1.563 µM
[5]
  P. aeruginosa expressing IMP-1, efflux+ (MB9798) MITC95: 6.25 µM
  Efflux ratio: 4.00
[6]
  IC50: 2.96 nM
[7]
  IC50: 0.472 nM
[8]
  IC50: 0.5 nM
